The text below walks through data of patent US20240041890A1, “ANTI-HAIR-LOSS COMPOSITION” (WELLA GERMANY GMBH, priority 2020, published 2024).

For assay [1], the system named is hair follicles in human full thickness scalp skin punches. Put plainly: Microscopic hair cycle staging and hair cycle score in ex vivo cultured scalp skin. In kind it is cell-based. The conditions noted are these: for hair cycle score ± SEM: 100 = anagen, 200 = early catagen, 300 = mid catagen, 400 = late catagen, lower number = more hairs in anagen; for % of hair follicles in anagen phase / % of hair follicles in early catagen phase: two topical treatments (day 1 and 3), evaluated after 5 days of ex vivo culture. As for the experimental part:
Human full thickness scalp skin punches (6 mm diameter) with hair from the occipital region were obtained from a donor. The dissected human punches were cultured at 37° C. with 5% CO2 in a minimal media of William's E media (Gibco, Life Technologies) supplemented with 10 ng/ml hydrocortisone (Sigma Aldrich), 10 μg/ml insulin (Sigma Aldrich) and 1% penicllin/streptomycin (Gibco) to make William's Complete Media (WCM) modified as previously described (Edelkamp et al., Molecular Dermatology 2020, Langan et al., Exp Dermatol 2015). After 24 h resting culture (day 0), two topical treatments were Performed (day 1 and 3). The medium was changed at day 3. Punches were embedded in OCT Compound (Optimal Cutting Temperature Compound) after 5 days (day 5) of ex vivo culture and cryosectioned (7 μm sections). The experimental groups for the topical treatments are outlined in Table 3.
Hair cycle staging and hair cycle score are perfomed at the end of the culture and can be determined according to several established macroscopic and microscopic paremeters (Langan et al., Exp Dermatol 2015; Oh et al., JID 2016).
Hair follicles are microscopically evaluated for the hair cycle staging using Masson-Fontana histochemistry and Ki-67/TUNEL immunostaining as previously described (Kloepper at al., Exp Dermatol 2010; Langan et al., Exp Dermatol 2015). For each experimental group, the percentage of hair follicles in each hair cycle phase was calculated and is shown below.

Assay [2] concerns the target T1, olfactory receptor OR2AT4 (Homo sapiens, UniProt A6NND4).
T1 sequence (A6NND4 1-320): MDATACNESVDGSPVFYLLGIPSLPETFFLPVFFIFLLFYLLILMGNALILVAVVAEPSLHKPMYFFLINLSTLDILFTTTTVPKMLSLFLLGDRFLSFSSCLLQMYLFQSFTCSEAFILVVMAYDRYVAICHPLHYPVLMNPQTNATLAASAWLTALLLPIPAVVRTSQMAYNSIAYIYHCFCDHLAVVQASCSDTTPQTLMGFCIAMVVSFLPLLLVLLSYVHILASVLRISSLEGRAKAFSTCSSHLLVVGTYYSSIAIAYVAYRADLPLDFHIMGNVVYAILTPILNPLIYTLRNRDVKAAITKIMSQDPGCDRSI
The settings on record: OR2AT4 expressed in the epithelium of human hair follicles; cited from earlier work.

Another assay concerns human hair follicles. The settings on record: by decreasing apoptosis and increasing the production of growth factor IGF-1; cited from earlier work.

Consider `CC1=CCC(CCC(C)C(C)O)C1(C)C` (stereo not drawn) [#2 (Sand), 3-methyl-5-(2,2,3-trimethylcyclopent-3-en-1-yl)pentan-2-ol], for which, in assay [1], the “hair cycle score ± SEM” value was 137.5 ± 12.5 arbitrary units, the “% of hair follicles in anagen phase” value came to 63% and the “% of hair follicles in early catagen phase” value stood at 38%. Further, in assay [1] (topical application on ex vivo cultured scalp skin), the “effect on anagen (in words)” value was “prolongs anagen”. In assay [2], the “effect on the olfactory receptor OR2AT4” value is given as “stimulatory effect”. The “effect on hair growth ex vivo” value with human hair follicles was “prolongs hair growth ex vivo”.

As for `Nc1cc(N2CCCCC2)nc(N)[n+]1[O-]` [#5 Minox), Minoxidil], in assay [1], the “hair cycle score ± SEM” value came out at 123.1 ± 12.16 arbitrary units, the “% of hair follicles in anagen phase” value is 77% and the “% of hair follicles in early catagen phase” value amounted to 23%.
